Literature values as cited in US20210169840A1, “COMPOSITION AND METHOD OF AN IRON SUPPLEMENT” (priority 2019, published 2021).

Details: in vivo

absorption: ~70%
Substance: carbonyl iron
